Laboratory results from patent US11229633B2, “Arimoclomol formulation” (Orphazyme A/S, priority 2014, dated 2022).
“Also recorded” adds a separate entry of the source.

How the values were obtained:
[1] = molecular target: T1, human OCT2 (Homo sapiens, UniProt O15244); assay: Uptake transporter substrate feasibility assay, OCT2; type: in vitro ADME; design: key to Substrate: NIO: No interaction observed
T1 construct: expressed in transfected cells; host or cells: CHO (protocol UPT-CHO-OCT2-Metf; control: parental CHO-K1)
T1 sequence (O15244 1-555): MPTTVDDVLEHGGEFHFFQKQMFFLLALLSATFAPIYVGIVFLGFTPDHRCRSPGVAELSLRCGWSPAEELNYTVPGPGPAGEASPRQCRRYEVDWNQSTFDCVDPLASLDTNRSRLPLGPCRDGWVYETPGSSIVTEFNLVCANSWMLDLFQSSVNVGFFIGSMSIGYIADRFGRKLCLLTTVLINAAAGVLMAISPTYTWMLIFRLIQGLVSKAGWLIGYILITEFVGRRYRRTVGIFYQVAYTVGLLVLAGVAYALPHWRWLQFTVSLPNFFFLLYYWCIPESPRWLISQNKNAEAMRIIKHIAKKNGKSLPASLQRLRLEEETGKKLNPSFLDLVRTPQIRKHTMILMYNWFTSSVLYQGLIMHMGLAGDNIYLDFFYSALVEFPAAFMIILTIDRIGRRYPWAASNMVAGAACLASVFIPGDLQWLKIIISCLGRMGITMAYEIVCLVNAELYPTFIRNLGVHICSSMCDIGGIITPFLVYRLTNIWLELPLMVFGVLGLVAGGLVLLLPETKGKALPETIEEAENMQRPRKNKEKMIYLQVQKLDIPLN
Procedure: (§1) Uptake experiments were performed using CHO, MDCKII, or HEK293 cells stably expressing the respective uptake transporters.
Cells were cultured at 37±1° C. in an atmosphere of 95:5 air:CO2 as described in Table 4 and were plated onto standard 24-well tissue culture plates at 2×10^5 cells/well. The uptake of the TA was determined using cells overexpressing the respective uptake transporter and control cells, at two incubation time points (2 and 20 min) and at two concentrations (1 and 10 μM) of TA to determine whether or not the TA was actively taken up into the cells.
Before the experiment, the medium was removed and the cells were washed twice with 300 μl of HK buffer (pH 7.4) (prepared from Sigma chemicals). Cellular uptake of TA into the cells was measured by adding 300 μl of HK buffer containing TA and incubating them at 37±1° C. Reactions were quenched by removing the HK buffer containing the TA and the cells were washed twice with 300 μl of HK buffer. Cells were lysed by adding 300 μl of MeOH:H2O (2:1) and incubated for 20 minutes at 4±1° C. The amount of TA in the cell lysate was determined by LC-MS/MS. The amount of protein in each well was quantified using the BCA kit for protein determination (Sigma-Aldrich, St Louis, Mo., USA). Uptake of the probe substrate in control cells provided background activity values for all data points. Incubation without reference inhibitor (solvent only) provided 100% activity values. A reference inhibitor served as positive control for inhibition.
The fold accumulation value was defined as the ratio of uptake of TA or probe substrate into transfected and control cells:
[formula] UPTTRP: accumulated amount of TA or probe substrate in transfected cells normalized by protein content [pmol/mg protein] UPTCTL: accumulated amount of TA or probe substrate in control cells normalized by protein content [pmol/mg protein]
If the fold accumulation is >2 and can be inhibited by a known inhibitor of the transporter, the TA can be considered to be a substrate of the respective transporter.

[2] = molecular target: T2, human OAT1 (Homo sapiens, UniProt Q4U2R8); assay: Uptake transporter inhibition assay, OAT1; type: in vitro ADME; design: key to maximum inhibition: NIO: No interaction observed; conditions: for maximum inhibition: 0.3-300 μM
T2 construct: expressed in transfected cells; host or cells: CHO (protocol UPT-CHO-OAT1-Tenofovir; control: parental CHO-K1)
T2 sequence (Q4U2R8 1-563): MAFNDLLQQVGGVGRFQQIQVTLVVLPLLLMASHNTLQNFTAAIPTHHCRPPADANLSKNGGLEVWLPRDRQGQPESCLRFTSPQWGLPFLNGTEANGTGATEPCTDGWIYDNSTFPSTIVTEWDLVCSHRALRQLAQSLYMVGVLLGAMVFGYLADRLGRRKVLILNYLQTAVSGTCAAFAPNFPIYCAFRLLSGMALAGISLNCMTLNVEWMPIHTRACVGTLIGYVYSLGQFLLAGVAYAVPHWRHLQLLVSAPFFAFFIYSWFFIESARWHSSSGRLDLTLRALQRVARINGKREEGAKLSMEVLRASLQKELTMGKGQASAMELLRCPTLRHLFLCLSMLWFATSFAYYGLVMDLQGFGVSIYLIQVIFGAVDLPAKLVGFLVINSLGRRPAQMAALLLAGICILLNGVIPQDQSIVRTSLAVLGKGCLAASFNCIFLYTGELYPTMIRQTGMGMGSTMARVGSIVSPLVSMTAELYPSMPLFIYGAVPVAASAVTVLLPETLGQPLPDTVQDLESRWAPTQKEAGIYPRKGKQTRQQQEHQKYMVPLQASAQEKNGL
Procedure: as §1
Cells were cultured at 37±1° C. in an atmosphere of 95:5 air:CO2 and were plated onto standard 96-well tissue culture plates at the cell number described in table 4.
Before the experiment, the medium was removed and the cells were washed twice with 100 μl of HK buffer at pH 7.4 (prepared from Sigma chemicals, Sigma-Aldrich, St Louis, Mo.). Uptake experiments were carried out at 37±1° C. in 50 μl of HK buffer (pH 7.4) containing the probe substrate and the TA or vehicle control (water).
After the experiment, cells were washed twice with ice cold, 100 μl of HK buffer and lysed with 50 μl of 0.1 M NaOH (1 mM CaCl2) in 5% SDS in the case of OATP1B3). Fluo-3 transport (OATP1B3) was determined by measuring fluorescence using 485 nm and 520 nm as the excitation and emission wavelengths, respectively. Radiolabelled probe substrate transport was determined by measuring an aliquot (35 μl) from each well for liquid scintillation counting.
Uptake of the probe substrate in control cells provided background activity values for all data points. Incubation without TA or reference inhibitor (solvent only) provided 100% activity values. A reference inhibitor served as positive control for inhibition.
The amount of translocated probe substrate was determined for each well in cpm or RFU. Relative activities were calculated from the equation:
[formula] A: amount of translocated substrate in the presence of TA in transfected cells B: amount of translocated substrate in the presence of TA in control cells C: amount of translocated substrate in the presence of solvent in transfected cells D: amount of translocated substrate in the presence of solvent in control cells Calculation of Fold Accumulation Values
In uptake transporter inhibition assays, the IC50 (μM) was calculated, where applicable. […]

[3] = cited from earlier work

Q: Which “Substrate of the transporter (in words)” value [1] does the source give for `[O-][n+]1cccc(C(Cl)=NOCC(O)CN2CCCCC2)c1` (stereo not shown) [Arimoclomol, N-[2-hydroxy-3-(1-piperidinyl)-propoxy]-pyridine-1-oxide-3-carboximidoyl chloride] here?
A: The value was “not a substrate”.

Q: What about the Fold accumulation ([1]; 1 μM, 2 min) of the same molecule?
A: The Fold accumulation was 0.95.

Q: What about the Fold accumulation ([1]; 1 μM, 20 min) of the same molecule?
A: The Fold accumulation was 1.28.

Q: What about the Fold accumulation ([1]; 10 μM, 2 min) of the same molecule?
A: The Fold accumulation was 0.87.

Q: What about the Fold accumulation ([1]; 10 μM, 20 min) of the same molecule?
A: Its Fold accumulation is 1.05.

Q: And the Fold accumulation ([1]; 1 and 10 μM, 2 and 20 min)?
A: The Fold accumulation was less than 2.

Q: And the Substrate ([1]; Table 2)?
A: The Substrate was “NIO”.

Q: And the maximum inhibition ([2]; Table 2)?
A: Its maximum inhibition is “NIO”.

Q: And the maximum inhibition ([2]; Table 5)?
A: The maximum inhibition was “NIO”.

Q: And the “Influence on OAT1-mediated probe substrate accumulation (in words)” value ([2]; applied concentrations)?
A: The value was “did not influence; also recorded: not an inhibitor”.

Q: And the maximum tolerated dose ([3]; healthy human volunteers)?
A: The maximum tolerated dose was “no maximum tolerated dose has been reached”.

Q: What about the safety and tolerability ([3]; oral single ascending or repeated doses 50 to 800 mg, 261 subjects) of the same molecule?
A: Its safety and tolerability is “safe and well-tolerated”.

Q: What about the serum creatinine levels ([3]; single- and multiple-dose Phase I studies) of the same molecule?
A: The serum creatinine levels was “slight and reversible increases”.
